# Entries after “also recorded” stand apart in the source; their conditions may differ. Where two headings read alike, the source gives them in different places.
# Assays:
# [1] = system: Prothrombin time (blood clotting); test: Prothrombin time ED50 (3 days after intraperitoneal injection); type: in vivo, rat (male Wistar strain); conditions: for ED50: Rattus norvegicus, S100, ip, 72 h, read-out: 3-day ED50 (Prothrombin time ED50); for anticoagulant activity (comparison in words): compared with Brodifacoum or Difenacoum
# Procedure: Compounds in accordance with the invention, and other substituted 4-hydroxy coumarin compounds not within the invention, including Brodifacoum, Difenacoum and Warfarin, were tested as described in the following examples. The Prothrombin time ED50 value is the most reliable method for measuring anticoagulant activity. The LD50 value is of significance in regard to the potency of the compound as a rodenticide.
# A preliminary test was carried out to reliably rank the potential rodenticides in order of anticogulant potency.
# The method used involved measurement of the Prothrombin time (a measure of blood clotting properties) which is based on that described in a paper by Quick, A. J., Stanley-Brown, M. and Bankoft. F. W. entitled "Study of Coagulation Defect in Haemophilia and in Jaundice" in American Journal of Medical Science, Vol. 190, pages 501-511, 1935. The compounds were dissolved in a 1:9 v/v mixture of triethanolamine and polyethylene glycol 200 Mol Wt and serially diluted to give appropriate doses in 1 ml per 1 kg of animal body weight. The doses were injected into the test animals by the interperitoneal route. Three days after injection, blood was withdrawn by cardiac puncture whilst the test animals (200-250 g Wistar strain male rats) were held under "Halothane" anaesthesia.
# Three rats were used in each test of a given compound, and three prothrombin time determinations were carried out on each blood sample. Prothrombin times were determined using the modified one-stage method of Quick. The percentage extension time of each prothrombin time was determined by assigning 0% extension time to an arbitary prothrombin resting time of 12 seconds, and 100% extension time to a prothrombin time elevated to an arbitrary 212 seconds. Results were plotted on log-probability graph paper, the best-line fitted, and the prothrombin the ED50 read from the graph.
# [2] = system: vitamin K reductase; conditions: literature: Fasco et al 1982; Park et al 1982; cited from earlier work
# [3] = system: vitamin K 2, 3-epoxide reductase; conditions: literature: Fasco et al 1982; Park et al 1982; cited from earlier work
# [4] = system: Warfarin-resistant rodents; conditions: prior art; cited from earlier work
# [5] = system: male rats, Wistar strain; test: 5 day no-choice bait feeding test, deaths up to 21 days; type: in vivo, rat (male; conditions: 5 day no-choice feed
# Procedure: Appropriate amounts of Compounds 1, and 3 and 5 were dissolved in acetone, serially diluted, and slurried onto rolled oats to give final bait concentrations of 5.0, 2.0, 0.5 and 0.2 ppm for Compound 1 and 20.0, 10.0, […] and 2.0 ppm for Compounds 3 and 5. Each bait was offered as a 5 day no-choice feed to groups of five individually caged male rats, Wistar strain.
# [6] = system: female rats Homozygous--Resistant Welsh strain; test: 24h no-choice bait feeding test, resistant rats, deaths up to 21 days; type: in vivo, rat (female; conditions: 24h no-choice feed
# Procedure: (§1) Appropriate amounts of Compounds 1,2,3 and 5 were dissolved in acetone and slurried onto rolled oats to give final bait concentrations of 20 ppm for Compounds 1 and 2; and 50 ppm for Compounds 3 and 5. Each bait was offered as a 24h no-choice feed to groups of five individually caged female rats Homozygous--Resistant Welsh strain; and similarly to groups of five individually caged male and female mice (Cambridge Cream Resistant strain).
# [7] = system: male and female mice (Cambridge Cream Resistant strain); test: 24h no-choice bait feeding test, resistant mice, deaths up to 21 days; type: in vivo, mouse (Cambridge Cream Resistant strain); conditions: 24h no-choice feed
# Procedure: as §1
# [8] = male Wistar rats 200-250 g, single intraperitoneal injection, blood taken three days after injection, ED50 = 50% extension of prothrombin time (0% = 12 s, 100% = 212 s)
SMILES,"ED50 [1, 8] [mg/kg]",other results
O=c1oc2ccccc2c(O)c1C1CC(c2ccc(CCc3ccc(Cl)cc3)cc2)Cc2ccccc21 (stereo not drawn) [Compound 18],0.27,anticoagulant activity (comparison in words) [1]: activity greater than Brodifacoum
O=c1oc2ccccc2c(O)c1C1CC(c2ccc(OCc3ccc(Br)cc3)cc2)Cc2ccccc21 (stereo not drawn) [Compound 11],0.27,anticoagulant activity (comparison in words) [1]: activity greater than Brodifacoum
"O=c1oc2ccccc2c(O)c1C1CC(c2c(Cl)cccc2Cl)Cc2ccccc21 (stereo not drawn) [Compound 26, reference compound]",10,–
"O=c1oc2ccccc2c(O)c1C1CC(CCCc2ccccc2)Cc2ccccc21 (stereo not drawn) [Compound 29, reference compound]",14.1,–
N#Cc1ccc(Oc2ccc(C3Cc4ccccc4C(c4c(O)c5ccccc5oc4=O)C3)cc2)cc1 (stereo not drawn) [Compound 10],0.41,–
O=c1oc2ccccc2c(O)c1C1CC(c2ccc(CCc3ccc(Br)cc3)cc2)Cc2ccccc21 (stereo not drawn) [Compound 17],0.37,–
O=c1oc2ccccc2c(O)c1C1CC(c2ccc(-c3ccccc3)cc2)Cc2ccccc21 (stereo not drawn) [Difenacoum],–,"ED50 [1]: 0.56 mg/kg; activity relative to Brodifacoum ([1]; rat, in vivo): about 36%; inhibiting ability, vitamin K reductase [2]: have this inhibiting ability; inhibiting ability, vitamin K 2,3-epoxide reductase [3]: have this inhibiting ability; effectiveness against Warfarin-resistant rodents [4]: effective against Warfarin-resistant rodents"
O=c1oc2ccccc2c(O)c1C1CC(c2ccc([N+](=O)[O-])cc2)Cc2ccccc21 (stereo not drawn) [Compound 9],0.8,–
"O=c1oc2ccccc2c(O)c1C1CC(c2ccccc2-c2ccc(C(F)(F)F)cc2)Cc2ccccc21 (stereo not drawn) [Compound 27, reference compound]",> 10,–
O=c1oc2ccccc2c(O)c1C1CC(c2ccc(CCCc3ccc(Cl)cc3)cc2)Cc2ccccc21 (stereo not drawn) [Compound 23],0.23,anticoagulant activity (comparison in words) [1]: activity greater than Brodifacoum
O=c1oc2ccccc2c(O)c1C1CC(c2ccc(/C=C/c3ccc(Br)cc3)cc2)Cc2ccccc21 (stereo not drawn) [Compound 21],0.8,–
O=c1oc2ccccc2c(O)c1C1CC(Cc2ccc(Cl)cc2Cl)Cc2ccccc21 (stereo not drawn) [Compound 6],1.8,–
O=c1oc2ccccc2c(O)c1C1CC(c2ccc(OCc3ccc(Cl)c(Cl)c3)cc2)Cc2ccccc21 (stereo not drawn) [Compound 16],0.43,–
"O=c1oc2ccccc2c(O)c1C1CC(c2ccc3c(c2)CCCC3)Cc2ccccc21 (stereo not drawn) [Compound 28, reference compound]",10,–
N#Cc1ccc(-c2ccc([C@H]3Cc4ccccc4[C@H](c4c(O)c5ccccc5oc4=O)C3)cc2)cc1 (relative stereo) [Compound 1],0.45,"Deaths up to 21 days ([5]; bait 0.2 ppm): 0/5; Deaths up to 21 days ([5]; bait 0.5 ppm): 5/5; Deaths up to 21 days ([5]; bait 2.0 ppm): 5/5; Deaths up to 21 days ([5]; bait 5.0 ppm): 5/5; Death up to 21 days, rats ([6]; bait 20.0 ppm): 5/5; Death up to 21 days, mice ([7]; bait 20.0 ppm): 5/5"
O=c1oc2ccccc2c(O)c1C1CC(c2ccc(-c3ccc(Br)cc3)cc2)Cc2ccccc21 (stereo not drawn) [Brodifacoum],0.28,"anticoagulant activity (comparison in words) [1]: particularly notable activity; inhibiting ability, vitamin K reductase [2]: have this inhibiting ability; inhibiting ability, vitamin K 2,3-epoxide reductase [3]: have this inhibiting ability; effectiveness against Warfarin-resistant rodents [4]: effective against Warfarin-resistant rodents; also recorded: effectiveness against Warfarin-resistant rodents"

SMILES,"ED50 [1, 8] [mg/kg]",other results
"O=c1oc2ccccc2c(O)c1[C@@H]1C[C@@H](c2ccc(-c3ccc(C(F)(F)F)cc3)cc2)Cc2ccccc21 (relative stereo) [Compound 24, 3[3-(4'-trifluoromethyl-4-yl)-1,2,3,4-tetrahydro-1-naphthyl]-4hydroxycoumarin]",0.47,–
O=c1oc2ccccc2c(O)c1C1CC(c2ccc(C(F)(F)F)cc2)Cc2ccccc21 (stereo not drawn) [Compound 3],0.59,"Deaths up to 21 days ([5]; bait 2.0 ppm): 5/5; Deaths up to 21 days ([5]; bait 5.0 ppm): 5/5; Deaths up to 21 days ([5]; bait 10.0 ppm): 5/5; Deaths up to 21 days ([5]; bait 20.0 ppm): 5/5; Death up to 21 days, rats ([6]; bait 50.0 ppm): 5/5; Death up to 21 days, mice ([7]; bait 50.0 ppm): 3/5"
O=c1oc2ccccc2c(O)c1C1CC(c2ccc(/C=C/c3ccccc3)cc2)Cc2ccccc21 (stereo not drawn) [Compound 22],0.8,–
O=c1oc2ccccc2c(O)c1C1CC(c2ccc(Oc3ccc(C(F)(F)F)cc3)cc2)Cc2ccccc21 (stereo not drawn) [Compound 20],0.23,anticoagulant activity (comparison in words) [1]: activity greater than Brodifacoum
CC(=O)CC(c1ccccc1)c1c(O)c2ccccc2oc1=O (stereo not drawn) [Warfarin],5.2,"inhibiting ability, vitamin K reductase [2]: have this inhibiting ability; inhibiting ability, vitamin K 2,3-epoxide reductase [3]: have this inhibiting ability"
"CCCCCCC1Cc2ccccc2C(c2c(O)c3ccccc3oc2=O)C1 (stereo not drawn) [Compound 30, reference compound]",14,–
"O=c1oc2ccccc2c(O)c1[C@@H]1C[C@H](c2ccc(-c3ccc(C(F)(F)F)cc3)cc2)Cc2ccccc21 (relative stereo) [Compound 25, 3[3-(4'-trifluoromethyl-4-yl)-1,2,3,4-tetrahydro-1-naphthyl]-4hydroxycoumarin]",0.46,–
O=c1oc2ccccc2c(O)c1C1CC(c2ccc(-c3ccc(Br)cc3)o2)Cc2ccccc21 (stereo not drawn) [Compound 8],0.78,–
O=c1oc2ccccc2c(O)c1C1CC(c2ccc(OCc3ccc(F)cc3)cc2)Cc2ccccc21 (stereo not drawn) [Compound 15],0.47,–
"O=c1oc2ccccc2c(O)c1[C@@H]1C[C@@H](c2ccc(OCc3ccccc3)cc2)Cc2ccccc21 (relative stereo) [Compound 14, reference compound]",4.3,anticoagulant activity (comparison in words) [1]: activity much lower than similarly structured Difenacourm
N#Cc1ccc(COc2ccc(C3Cc4ccccc4C(c4c(O)c5ccccc5oc4=O)C3)cc2)cc1 (stereo not drawn) [Compound 12],0.8,–
N#Cc1ccc(-c2ccc([C@@H]3Cc4ccccc4[C@H](c4c(O)c5ccccc5oc4=O)C3)cc2)cc1 (relative stereo) [Compound 2],0.31,"Death up to 21 days, rats ([6]; bait 20.0 ppm): 5/5; Death up to 21 days, mice ([7]; bait 20.0 ppm): 4/5"
O=c1oc2ccccc2c(O)c1C1CC(c2ccc(OCc3ccc(C(F)(F)F)cc3)cc2)Cc2ccccc21 (stereo not drawn) [Compound 13],0.32,–
N#Cc1ccc(C2Cc3ccccc3C(c3c(O)c4ccccc4oc3=O)C2)cc1 (stereo not drawn) [Compound 7],0.54,–
N#Cc1ccc(CCc2ccc(C3Cc4ccccc4C(c4c(O)c5ccccc5oc4=O)C3)cc2)cc1 (stereo not drawn) [Compound 19],0.9,–

# Source: patent publication US4520007A, “Anti-coagulants of the 4-hydroxycoumarin type and rodenticidal compositions (baits) comprising such anti-coagulants” (priority 1982, dated 1985)
